Source: paper PMC7914897, “Cytotoxic Potential of a-Azepano- and 3-Amino-3,4-SeCo-Triterpenoids” (International Journal of Molecular Sciences, 2021)

Assays:
[1] = tested on: A2780 (ovarian carcinoma); experiment: SRB cytotoxicity assay, 72 h; type: cell-based, human; details: Homo sapiens; A2780, 72 h, cut-off 30 µM; read-out: EC50
Method in brief: (§1)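 EC50 values reflect percent surviving cells versus untreated controls, read at 570 nm after SRB staining of TCA-fixed monolayers. Dosing spanned 0–30 µM over 72 h.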

[2] = tested on: A375 (malignant melanoma); experiment: SRB cytotoxicity assay, 72 h; type: cell-based, human; details: Homo sapiens, A-375, 72 h, A375, 72 h, cut-off 30 µM; read-out: EC50
Method in brief: as §1

[3] = tested on: FaDu (hypopharyngeal carcinoma); experiment: SRB cytotoxicity assay, 72 h; type: cell-based, human; details: Homo sapiens, cut-off 30 µM, read-out: EC50
Method in brief: as §1

[4] = tested on: HT29 (colorectal carcinoma); experiment: SRB cytotoxicity assay, 72 h; type: cell-based, human; details: Homo sapiens, HT-29; HT29, 72 h, cut-off 30 µM; read-out: EC50
Method in brief: as §1

[5] = tested on: NSC lung cancer subpanel; experiment: NCI-60 screen, subpanel; details: Homo sapiens; for IC (TGI): 48 h, read-out: TGI MG_MID; for GI50: read-out: GI50 MG_MID; for CC50: read-out: LC50 MG_MID
[6] = tested on: Renal Cancer subpanel; experiment: NCI-60 screen, subpanel; details: Homo sapiens; for IC (TGI): 48 h, read-out: TGI MG_MID; for GI50: read-out: GI50 MG_MID; for CC50: read-out: LC50 MG_MID
[7] = tested on: Prostate cancer subpanel; experiment: NCI-60 screen, subpanel; details: Homo sapiens; for IC (TGI): 48 h, read-out: TGI MG_MID; for GI50: read-out: GI50 MG_MID; for CC50: read-out: LC50 MG_MID
[8] = tested on: CCRF-CEM (Leukemia); experiment: NCI-60 screen (SRB, 48 h); details: Homo sapiens; for CC50: read-out: LC50
[9] = tested on: K-562 (Leukemia); experiment: NCI-60 screen (SRB, 48 h); details: Homo sapiens; for GI50: K562; for CC50: K562, read-out: LC50
[10] = tested on: RPMI-8226 (Leukemia); experiment: NCI-60 screen (SRB, 48 h); details: Homo sapiens; for GI50: RPMI-8226; for IC (TGI): RPMI-8226, 48 h, read-out: TGI
[11] = tested on: A549/ATCC (NSC lung cancer); experiment: NCI-60 screen (SRB, 48 h); details: Homo sapiens; for GI50: A549; for IC (TGI): A549, 48 h, read-out: TGI
[12] = tested on: EKVX (NSC lung cancer); experiment: NCI-60 screen (SRB, 48 h); details: Homo sapiens; for IC (TGI): 48 h, read-out: TGI
[13] = tested on: NCI-H522 (NSC lung cancer); experiment: NCI-60 screen (SRB, 48 h); details: Homo sapiens; for GI50: NCI-H522; for IC (TGI): NCI-H522, 48 h, read-out: TGI; for CC50: NCI-H522, read-out: LC50
[14] = tested on: KM12 (Colon cancer); experiment: NCI-60 screen (SRB, 48 h); details: Homo sapiens; for GI50: KM12; for IC (TGI): KM12, 48 h, read-out: TGI
[15] = tested on: SK-MEL-2 (Melanoma); experiment: NCI-60 screen (SRB, 48 h); details: Homo sapiens; for GI50: SK-MEL-2; for IC (TGI): SK-MEL-2, 48 h, read-out: TGI; for CC50: SK-MEL-2, read-out: LC50
[16] = tested on: UACC-62 (Melanoma); experiment: NCI-60 screen (SRB, 48 h); details: Homo sapiens; for GI50: UACC-62; for IC (TGI): UACC-62, 48 h, read-out: TGI
[17] = tested on: IGROV1 (Ovarian cancer); experiment: NCI-60 screen (SRB, 48 h); details: Homo sapiens; for GI50: IGROV-1; for IC (TGI): IGROV-1, 48 h, read-out: TGI
[18] = tested on: SK-OV-3 (Ovarian cancer); experiment: NCI-60 screen (SRB, 48 h); details: Homo sapiens; for GI50: SK-OV-3; for IC (TGI): SK-OV-3, 48 h, read-out: TGI; for CC50: SK-OV-3, read-out: LC50
[19] = tested on: 786-0 (Renal cancer); experiment: NCI-60 screen (SRB, 48 h); details: for GI50 / IC (TGI): Homo sapiens; for GI50: 786-0; for IC (TGI): 786-0, 48 h, read-out: TGI
[20] = tested on: CAKI-1 (Renal cancer); experiment: NCI-60 screen (SRB, 48 h); details: Homo sapiens; for GI50: CAKI-1; for IC (TGI): CAKI-1, 48 h, read-out: TGI; for CC50: CAKI-1, read-out: LC50
[21] = tested on: RXF 393 (Renal cancer); experiment: NCI-60 screen (SRB, 48 h); details: Homo sapiens; for GI50: RXF 393; for IC (TGI): RXF 393, 48 h, read-out: TGI; for CC50: RXF 393, read-out: LC50
[22] = tested on: UO-31 (Renal cancer); experiment: NCI-60 screen (SRB, 48 h); details: Homo sapiens; for GI50: UO-31; for IC (TGI): UO-31, 48 h, read-out: TGI; for CC50: UO-31, read-out: LC50
[23] = tested on: PC-3 (Prostate cancer); experiment: NCI-60 screen (SRB, 48 h); details: Homo sapiens; for GI50: PC-3; for IC (TGI): PC-3, 48 h, read-out: TGI
[24] = tested on: T-47D (Breast cancer); experiment: NCI-60 screen (SRB, 48 h); details: Homo sapiens, T47D; for IC (TGI): 48 h, read-out: TGI

Compound: Cc1ccc(S(=O)(=O)OC[C@]23CCC(C)(C)C[C@H]2C2=CC[C@@H]4[C@@]5(C)CCCNC(C)(C)[C@@H]5CC[C@@]4(C)[C@]2(C)CC3)cc1 [Compound 15]
- EC50 [1]: 1.48 ± 0.2 µM
- EC50 [2]: 2.36 ± 0.1 µM
- EC50 [3]: 2.02 ± 0.2 µM
- EC50 [4]: 2.33 ± 0.2 µM
- IC (TGI) [5]: 3.42 µM
- GI50 [5]: 3.14 µM
- CC50 [5]: 53.4 µM
- IC (TGI) [6]: 5.44 µM
- GI50 [6]: 2.13 µM
- CC50 [6]: 14.3 µM
- IC (TGI) [7]: 3.27 µM
- GI50 [7]: 1.72 µM
- CC50 [7]: 6.35 µM
- GI50 [8]: 1.93 µM
- CC50 [8]: > 100 µM
- GI50 [9]: 1.75 µM
- CC50 [9]: > 100 µM
- GI50 [10]: 2.03 µM
- IC (TGI) [10]: 4.42 µM
- GI50 [11]: 1.83 µM
- IC (TGI) [11]: 3.66 µM
- GI50 [12]: 1.48 µM
- IC (TGI) [12]: 2.96 µM
- GI50 [13]: 1.69 µM
- IC (TGI) [13]: 3.38 µM
- CC50 [13]: 6.78 µM
- GI50 [14]: 1.82 µM
- IC (TGI) [14]: 3.33 µM
- GI50 [15]: 2.19 µM
- IC (TGI) [15]: 4.83 µM
- CC50 [15]: 16.4 µM
- GI50 [16]: 1.68 µM
- IC (TGI) [16]: 3.2 µM
- GI50 [17]: 1.41 µM
- IC (TGI) [17]: 3.08 µM
- GI50 [18]: 1.76 µM
- IC (TGI) [18]: 3.26 µM
- CC50 [18]: 6.03 µM
- GI50 [19]: 1.85 µM
- IC (TGI) [19]: 4.14 µM
- GI50 [20]: 1.45 µM
- IC (TGI) [20]: 2.82 µM
- CC50 [20]: 5.46 µM
- GI50 [21]: 1.38 µM
- IC (TGI) [21]: 2.78 µM
- CC50 [21]: 5.59 µM
- GI50 [22]: 1.29 µM
- IC (TGI) [22]: 2.68 µM
- CC50 [22]: 5.58 µM
- GI50 [23]: 1.66 µM
- IC (TGI) [23]: 3.16 µM
- GI50 [24]: 1.67 µM
- IC (TGI) [24]: 3.31 µM

Compound: Cc1ccc(S(=O)(=O)OC[C@@]2(C)CC[C@]3(C)CC[C@]4(C)C(=C3C2)C=C[C@@H]2[C@@]3(C)CCCNC(C)(C)[C@@H]3CC[C@]24C)cc1 [Compound 16]
- EC50 [1]: 2.38 ± 0.1 µM
- EC50 [2]: 1.91 ± 0.1 µM
- EC50 [3]: 1.52 ± 0.1 µM
- EC50 [4]: 1.54 ± 0.1 µM
- IC (TGI) [5]: 3.36 µM
- GI50 [5]: 1.72 µM
- CC50 [5]: 6.23 µM
- IC (TGI) [6]: 3.19 µM
- GI50 [6]: 1.67 µM
- CC50 [6]: 5.92 µM
- IC (TGI) [7]: 3.19 µM
- GI50 [7]: 1.67 µM
- CC50 [7]: 6.1 µM
- GI50 [8]: 2.14 µM
- IC (TGI) ([8]; 48 h, read-out: TGI): 6.06 µM
- CC50 [8]: > 100 µM
- GI50 [9]: 1.28 µM
- CC50 [9]: > 100 µM
- GI50 [10]: 2.12 µM
- IC (TGI) [10]: 4.63 µM
- CC50 ([10]; RPMI-8226, read-out: LC50): > 100 µM
- GI50 [11]: 1.86 µM
- IC (TGI) [11]: 3.62 µM
- GI50 [12]: 1.7 µM
- IC (TGI) [12]: 3.29 µM
- CC50 ([12]; read-out: LC50): 6.35 µM
- GI50 [13]: 1.7 µM
- IC (TGI) [13]: 3.36 µM
- CC50 [13]: 6.64 µM
- GI50 [14]: 1.86 µM
- IC (TGI) [14]: 3.57 µM
- CC50 ([14]; KM12, read-out: LC50): 6.85 µM
- GI50 [15]: 1.88 µM
- IC (TGI) [15]: 3.52 µM
- CC50 [15]: 6.58 µM
- GI50 [16]: 1.84 µM
- IC (TGI) [16]: 3.39 µM
- GI50 [17]: 1.79 µM
- IC (TGI) [17]: 3.43 µM
- GI50 [18]: 1.79 µM
- IC (TGI) [18]: 3.25 µM
- CC50 [18]: 5.91 µM
- Growth % of the Most Sensitive Cell Lines ([19]; 786-0, 1 dose 10 µM): −90.69%
- GI50 [19]: 1.84 µM
- IC (TGI) [19]: 3.51 µM
- GI50 [20]: 1.61 µM
- IC (TGI) [20]: 3.06 µM
- CC50 [20]: 5.81 µM
- GI50 [21]: 1.35 µM
- IC (TGI) [21]: 2.86 µM
- CC50 [21]: 6.05 µM
- GI50 [22]: 1.46 µM
- IC (TGI) [22]: 2.85 µM
- CC50 [22]: 5.59 µM
- GI50 [23]: 1.53 µM
- IC (TGI) [23]: 2.98 µM
- CC50 ([23]; PC-3, read-out: LC50): 5.82 µM
- GI50 [24]: 1.55 µM
- IC (TGI) [24]: 3.26 µM
- CC50 ([24]; read-out: LC50): 6.85 µM
